Consider 32 compounds from patent US10005767B2, “Compositions and methods for inhibition of the JAK pathway” (Rigel Pharmaceuticals, Inc., priority 2009, dated 2018).

SMILES strings stand for the structures.

The subject of one assay is human primary T-cells, IL-2 stimulated proliferation (JAK-1 and JAK-3 dependent; reported as JAK3 activity). The experiment in a line: Human primary T-cell proliferation stimulated by IL-2 (Example 3). As to conditions: Homo sapiens, T-cell, tested under conditions described in Example 3 (IL-2 stimulated human primary T-cell proliferation); read-out: ability to inhibit JAK3 activity, IC50 range (Table V). Type of assay: cell-based. Summed up:
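Peripheral-blood human T-cells pre-activated via TCR/CD28, IL-2-starved overnight, then cultured 72 h at 37 °C with compound in Yssel's medium containing IL-2 (80 U/mL in cell suspension). Proliferation read as viable-cell ATP by CellTiter-Glo luminescence; reduction versus control taken as JAK pathway inhibition.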
Regarding `Cc1ccc(Nc2ncc(C)c(Nc3ccc4oc(=O)[nH]c4c3)n2)cc1C(F)F` [Compound I-438, 5-(2-(3-(difluoromethyl)-4-methylphenylamino)-5-methylpyrimidin-4-ylamino)benzo[d]oxazol-2(3H)-one], the IC50 is less than 0.5 µM.

On to `Cc1cc(Nc2ncc(C)c(Nc3ccc4oc(=O)[nH]c4c3)n2)ccc1C(C)C` [Compound I-166, 5-[2-(4-Isopropyl-3-methyl-phenylamino)-5-methyl-pyrimidin-4-ylamino]-3H-benzooxazol-2-one], for which the IC50 is less than 0.5 µM.

As to `Cc1cnc(Nc2cnc(N3C[C@@H]4C[C@H]3CN4C)c(F)c2)nc1Nc1ccc2oc(=O)[nH]c2c1` [II-40, N4-(benzoxazolin-2-on-5-yl)-N2-[3-fluoro-2-((1S,4S)-5-methyl-2,5-diazabicyclo[2.2.1]heptan-2-yl)pyridin-5-yl]-5-methylpyrimidine-2,4-diamine], the IC50 is less than 0.5 µM.

Turning to `Cc1cnc(Nc2ccc(N3C[C@@H](C)N(C)[C@@H](C)C3)nc2)nc1Nc1ccc2oc(=O)[nH]c2c1` [II-127, 5-methyl-N4-(2-oxo-2,3-dihydro-1,3-benzoxazol-5-yl)-N2-[2-(cis-3,4,5-trimethylpiperazino)pyridin-5-yl]-2,4-pyrimidinediamine], the 50% inhibitory concentration (IC50) is less than 0.5 µM.

Regarding `Cc1cc(N2CCN(C)CC2)ncc1Nc1ncc(C)c(Nc2ccc3oc(=O)[nH]c3c2)n1` [II-143, N2-[4-methyl-2-(4-methylpiperazino)pyridin-5-yl]-5-methyl-N4-(2-oxo-2,3-dihydro-1,3-benzoxazol-5-yl)-2,4-pyrimidinediamine], the IC50 was 0.5 to 5 µM.

For `COc1cc(Nc2ncc(C)c(Nc3cc(F)c4oc(=O)[nH]c4c3)n2)cc(C)c1OC` [Compound I-454, 5-(2-(3,4-dimethoxy-5-methylphenylamino)-5-methylpyrimidin-4-ylamino)-7-fluorobenzo[d]oxazol-2(3H)-one], the IC50 was less than 0.5 µM.

As to `Cc1cnc(Nc2ccc(F)c(OC(F)(F)F)c2)nc1Nc1ccc2oc(=O)[nH]c2c1` [Compound I-163, 5-[2-(4-Fluoro-3-trifluoromethoxy-phenylamino)-5-methyl-pyrimidin-4-ylamino]-3H-benzooxazol-2-one], the IC50 was less than 0.5 µM.

Take `CCCC(NC)c1cc(Nc2ncc(C)c(Nc3ccc4oc(=O)[nH]c4c3)n2)cc(C(F)(F)F)c1` (centres unmarked) [Compound I-460, 5-(5-methyl-2-(3-(1-(methylamino)butyl)-5-(trifluoromethyl)phenylamino)pyrimidin-4-ylamino)benzo[d]oxazol-2(3H)-one]: the IC50 is less than 0.5 µM.

Take `O=c1[nH]c2cc(Nc3nc(Nc4cccc(S(=O)(=O)N5CCOCC5)c4)ncc3F)ccc2o1` [Compound I-31, N4-(benzo[d]oxazol-2(3H)-on-5-yl)-N2-(3-(morpholinosulfonyl)phenyl)-5-fluoropyrimidine-2,4-diamine]: the IC50 is less than 0.5 µM.

As for `Cc1cnc(Nc2cc(C(C)O)ccc2F)nc1Nc1ccc2oc(=O)[nH]c2c1` (centres unmarked) [Compound I-523, 5-(2-(2-fluoro-5-(1-hydroxyethyl)phenylamino)-5-methylpyrimidin-4-ylamino)benzo[d]oxazol-2(3H)-one], the IC50 was less than 0.5 µM.

Turning to `Cc1cnc(Nc2ccc(Cl)c(C(F)(F)F)c2)nc1Nc1ccc2oc(=O)[nH]c2c1` [Compound I-153, 5-[2-(4-Chloro-3-trifluoromethyl-phenylamino)-5-methyl-pyrimidin-4-ylamino]-3H-benzooxazol-2-one], the IC50 is less than 0.5 µM.

Regarding `Cc1cnc(Nc2ccc3c(c2)CN(C)C3)nc1Nc1ccc2oc(=O)[nH]c2c1` [III-4, N4-(benzo[d]oxazol-2(3H)-on-5-yl)-N2-(2-methylisoindolin-5-yl)-5-methylpyrimidine-2,4-diamine], the IC50 is less than 0.5 µM.

On to `Cc1cnc(Nc2cnc(N3CC4CNCC4C3)c(F)c2)nc1Nc1ccc2oc(=O)[nH]c2c1` (centres unmarked) [II-50, 5-{2-[5-Fluoro-6-(hexahydro-pyrrolo[3,4-c]pyrrol-2-yl)-pyridin-3-ylamino]-5-methyl-pyrimidin-4-ylamino}-3H-benzooxazol-2-one], for which the IC50 was less than 0.5 µM.

As for `Cc1cnc(Nc2ccc(N3CCN(C)CC3)nc2)nc1Nc1cc(C)c2oc(=O)[nH]c2c1` [II-72, 7-methyl-5-(5-methyl-2-(6-(4-methylpiperazin-1-yl)pyridin-3-ylamino)pyrimidin-4-ylamino)benzo[d]oxazol-2(3H)-one], the half-maximal inhibitory concentration (IC50) is less than 0.5 µM.

As to `CCN1CC2CN(c3ncc(Nc4ncc(C)c(Nc5ccc6oc(=O)[nH]c6c5)n4)cc3Cl)CC2C1` (centres unmarked) [II-118, N2-[3-chloro-2-(3-ethyl-3,7-diazabicyclo[3.3.0]octan-7-yl)pyridin-5-yl]-5-methyl-N4-(2-oxo-2,3-dihydro-1,3-benzoxazol-5-yl)-2,4-pyrimidinediamine], the IC50 was less than 0.5 µM.

Regarding `COc1cc(CF)cc(Nc2ncc(C)c(Nc3ccc4oc(=O)[nH]c4c3)n2)c1` [Compound I-274, 5-(2-(3-(fluoromethyl)-5-methoxyphenylamino)-5-methylpyrimidin-4-ylamino)benzo[d]oxazol-2(3H)-one], the IC50 is less than 0.5 µM.

`Cc1cnc(Nc2ccc(F)c(S(C)(=O)=O)c2)nc1Nc1cc(C)c2oc(=O)[nH]c2c1` [Compound I-245, 5-(2-(4-fluoro-3-(methylsulfonyl)phenylamino)-5-methylpyrimidin-4-ylamino)-7-methylbenzo[d]oxazol-2(3H)-one]: the IC50 is less than 0.5 µM.

On to `Cc1cnc(Nc2ccc(Cl)c(OC(F)(F)F)c2)nc1Nc1ccc2oc(=O)[nH]c2c1` [Compound I-180, 5-[2-(4-Chloro-3-trifluoromethoxy-phenylamino)-5-methyl-pyrimidin-4-ylamino]-3H-benzooxazol-2-one], for which the half-inhibitory concentration (IC50) is less than 0.5 µM.

On to `Cc1cnc(Nc2ccc3c(c2)OC(F)(F)O3)nc1Nc1ccc2oc(=O)[nH]c2c1` [IV-36, N2-(2,2-difluoro-2H-1,3-benzodioxol-5-yl)-5-methyl-N4-(2-oxo-2,3-dihydro-1,3-benzoxazol-5-yl)-2,4-pyrimidinediamine], for which the IC50 is less than 0.5 µM.

For the compound `Cc1cnc(Nc2cccc(F)c2F)nc1Nc1ccc2oc(=O)[nH]c2c1` [Compound I-467, 5-[2-(2,3-Difluoro-phenylamino)-5-methyl-pyrimidin-4-ylamino]-3H-benzooxazol-2-one], the IC50 was less than 0.5 µM.

`Cc1cnc(Nc2ccc3c(c2)NC(=O)CO3)nc1Nc1ccc2oc(=O)[nH]c2c1` [IV-25, 6-(5-methyl-4-(2-oxo-2,3-dihydrobenzo[d]oxazol-5-ylamino)pyrimidin-2-ylamino)-2H-benzo[b][1,4]oxazin-3 (4H)-one]: the IC50 was less than 0.5 µM.

Staying with this assay, now noted: tested under conditions described in Example 3 (IL-2 stimulated human primary T-cell proliferation); read-out: ability to inhibit JAK3 activity, IC50 range (Table V).
Regarding `Cn1c(=O)oc2cc(Nc3nc(Nc4ccc(S(N)(=O)=O)cc4)ncc3F)ccc21` [Compound I-58], the IC50 was more than 10 µM.

For `COCCOc1cc(Nc2ncc(C)c(Nc3ccc4oc(=O)[nH]c4c3)n2)cc(C(F)(F)F)c1` [Compound I-384, N2-[3-(2-methoxy)ethoxy-5-trifluoromethyl]phenyl-5-methyl-N4-(2-oxo-2,3-dihydro-1,3-benzoxazol-5-yl)-2,4-pyrimidinediamine], the IC50 was less than 0.5 µM.

As for `Cc1cnc(Nc2cc(Cl)cc(OC(F)(F)F)c2)nc1Nc1ccc2oc(=O)[nH]c2c1` [Compound I-378, N2-(3-chloro-5-trifluoromethoxy)phenyl-5-methyl-N4-(2-oxo-2,3-dihydro-1,3-benzoxazol-5-yl)-2,4-pyrimidinediamine], the IC50 is less than 0.5 µM.

Take `Cc1ccc(Nc2ncc(C)c(Nc3ccc4oc(=O)[nH]c4c3)n2)cc1OC(C)(C)C#N` [Compound I-397, N2-[3-(1-cyano-1-methyl)ethoxy-4-methyl]phenyl-5-methyl-N4-(2-oxo-2,3-dihydro-1,3-benzoxazol-5-yl)-2,4-pyrimidinediamine]: the IC50 is less than 0.5 µM.

In the case of `Cc1cnc(Nc2cc(C)c(C)c(F)c2)nc1Nc1ccc2oc(=O)[nH]c2c1` [Compound I-537, N2-(3,4-dimethyl-5-fluoro)phenyl-5-methyl-N4-(2-oxo-2,3-dihydro-1,3-benzoxazol-5-yl)-2,4-pyrimidinediamine], the IC50 is less than 0.5 µM.

In the case of `Cc1cnc(Nc2cc(C)c(C)c(C)c2)nc1Nc1ccc2oc(=O)[nH]c2c1` [Compound I-365, N2-(3,4,5-trimethyl)phenyl-5-methyl-N4-(2-oxo-2,3-dihydro-1,3-benzoxazol-5-yl)-2,4-pyrimidinediamine], the IC50 was less than 0.5 µM.

Take `COc1ccc(Nc2ncc(C)c(Nc3ccc4oc(=O)[nH]c4c3)n2)cc1OCc1cccnc1` [Compound I-299, N2-{4-methoxy-3-[(pyridin-3-yl)methoxy]}phenyl-5-methyl-N4-(2-oxo-2,3-dihydro-1,3-benzoxazol-5-yl)-2,4-pyrimidinediamine]: the IC50 is less than 0.5 µM.

As for `Cc1cnc(Nc2cccc(OCC(N)=O)c2)nc1Nc1ccc2oc(=O)[nH]c2c1` [Compound I-319, N2-[3-(aminocarbonylmethoxy)]phenyl-5-methyl-N4-(2-oxo-2,3-dihydro-1,3-benzoxazol-5-yl)-2,4-pyrimidinediamine], the half-maximal inhibitory concentration (IC50) is less than 0.5 µM.

`Cc1cnc(Nc2ccc(-c3cccnc3)cc2)nc1Nc1ccc2oc(=O)[nH]c2c1` [Compound I-291, 5-methyl-N4-(2-oxo-2,3-dihydro-1,3-benzoxazol-5-yl)-N2-[4-(pyridin-3-yl)]phenyl-2,4-pyrimidinediamine]: the IC50 is less than 0.5 µM.

For the compound `O=c1[nH]c2cc(Nc3nc(Nc4ccc(N5CCOCC5)nc4)ncc3F)ccc2o1` [II-18, N4-(benzo[d]oxazol-2(3H)-on-5-yl)-N2-((2-morpholinyl)pyridin-5-yl)-5-fluoropyrimidine-2,4-diamine], the IC50 is less than 0.5 µM.

With `O=c1[nH]c2ccc(Nc3nc(Nc4cccc(S(=O)(=O)N5CCOCC5)c4)ncc3F)cc2[nH]1` [Compound I-32, N4-(benzimidazolin-2-on-5-yl)-N2-(3-(morpholinosulfonyl)phenyl)-5-fluoropyrimidine-2,4-diamine], the concentration for half-maximal inhibition (IC50) was in the range of 0.5 to 5 µM.
